We go through 40 molecules from paper PMC12280126, “Potent β-lactam-based tyrosyl-DNA phosphodiesterase 1 inhibitors identified by a virtual screen” (Scientific Reports, 2025).

Each structure is given as a SMILES string. Several values for one entry are separate records, joined by “and”; a condition that tells them apart may be missing. Identical values can stand only once. Counter-ions that a name gives are not always drawn. A value given as a limit tells only on which side of the number the result lay.

One test deals with T1, recombinant TDP1 (Homo sapiens, UniProt Q9NUW8).
T1 construct: incubated with 40 pM full-length recombinant TDP1 or TDP1 (148–608)
T1 sequence (Q9NUW8 whole entry): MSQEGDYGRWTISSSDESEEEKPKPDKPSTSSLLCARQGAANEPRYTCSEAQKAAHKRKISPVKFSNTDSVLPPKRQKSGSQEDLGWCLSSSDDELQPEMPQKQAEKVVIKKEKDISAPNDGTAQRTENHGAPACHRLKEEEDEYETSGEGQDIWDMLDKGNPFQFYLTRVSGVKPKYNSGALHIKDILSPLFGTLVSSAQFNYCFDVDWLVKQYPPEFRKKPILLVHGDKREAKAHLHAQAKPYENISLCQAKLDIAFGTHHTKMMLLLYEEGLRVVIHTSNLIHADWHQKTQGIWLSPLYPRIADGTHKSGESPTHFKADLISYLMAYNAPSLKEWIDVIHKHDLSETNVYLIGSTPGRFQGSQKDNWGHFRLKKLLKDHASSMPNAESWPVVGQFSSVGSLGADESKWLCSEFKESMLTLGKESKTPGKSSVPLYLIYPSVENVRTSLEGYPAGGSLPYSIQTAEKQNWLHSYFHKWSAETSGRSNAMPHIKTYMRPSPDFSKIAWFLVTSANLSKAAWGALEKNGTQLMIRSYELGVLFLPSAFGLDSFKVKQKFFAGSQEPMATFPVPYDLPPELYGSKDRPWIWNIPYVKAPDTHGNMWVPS
The experiment in a line: in vitro gel-based fluorescence TDP1 catalytic assay. The test is classed as biochemical. The settings on record: 40 pM recombinant TDP1, 1 nM N14Y DNA substrate, 15 min, room temperature; read-out: TDP1 IC50. Here is the method: We subjected select virtual screen hits to evaluation of TDP1 inhibitory potencies using in vitro gel-based fluorescence TDP1 catalytic assays (Fig. 2). […] To further explore this class of compounds, we purchased from TargetMol a library of approximately 90 β-lactams as 10 mM solutions in DMSO. […] We examined TDP1 inhibitory potencies of the compounds using the in vitro gel-based fluorescence assays as previously described[21]–[24]. Briefly, a 5’-Cy5-labeled DNA substrate (N14Y, 5’-Cy5-[…]-pY-3’, 1 nM) was incubated in TDP1 reaction buffer with recombinant TDP1 or truncated TDP1(148–608) (40 pM) in the absence or presence of inhibitors for 15 min at room temperature. […] The TDP1 inhibition IC50 values were calculated based on gel images of the cleavage product (N14P, 5’-Cy5-[…]-p-3’) (Fig. 3A and Table S2).
The inhibition of TDP1 and TDP2 were conducted according to gel-based methods as previously described[21]–[24],[45]. Briefly, 1 nM of the DNA substrate (N14Y, 5´Cy5-[…]-pY-3´) was incubated with 40 pM full-length recombinant TDP1 or TDP1 (148–608) in the absence or presence of inhibitors for 15 min at room temperature in TDP1 reaction buffer (50 mM Tris-HCl, pH 7.5, 80 mM KCl, 2 mM EDTA, 1 mM DTT, 40 µg/mL BSA and 0.01% Tween 20). The inhibition of TDP2 was also conducted by using similar conditions. […] The reactions of both TDP1 and TDP2 were stopped by adding an equal volume of gel loading buffer (99.5% (v/v) formamide, 5 mM EDTA). The samples were then subjected to a 20% denaturing PAGE gel followed by gel scanning using a Typhoon FLA 9500 scanner (GE Healthcare). The IC50 values of the TDP1 inhibitors were calculated by comparing the percentage of the cleavage product (N14P, 5´Cy5-[…]-p-3´) produced to that in the DMSO control. The IC50 values of the TDP2 inhibitors were calculated by comparing the percentage of the cleavage product (PN18, 5’-p-[…]-Cy5-3’) produced to that in the DMSO control.
For `CO/N=C(\C(=O)N[C@@H]1C(=O)N2C(C(=O)O)=C(COC(C)=O)CS[C@H]12)c1csc(N)n1` [LA1, Cefotaxime sodium], the IC50 was more than 1000 µM.

As for `Cc1nnc(SCC2=C(C(=O)O)N3C(=O)[C@@H](NC(=O)Cn4cnnn4)[C@H]3SC2)s1` [LA3, Cefazolin], the half-maximal inhibitory concentration (IC50) is more than 1000 µM. Same read-out and setting: to `CC(=O)OCC1=C(C(=O)O)N2C(=O)[C@@H](NC(=O)CSC(=NC(C)C)NC(C)C)[C@H]2SC1` [LA4, Cefathiamidine] belongs more than 1000 µM; to `CO/N=C(\C(=O)N[C@@H]1C(=O)N2C(C(=O)O)=C(CSc3nc(C)c(CC(=O)O)s3)CS[C@H]12)c1csc(N)n1` [LA5, Cefodizime Sodium], more than 1000 µM; to `CC1(C)S[C@@H]2[C@H](NC(=O)C(c3ccccc3)S(=O)(=O)O)C(=O)N2[C@H]1C(=O)O` (stereo partly shown) [LA6, Sulbenicillin Sodium], more than 1000 µM. `Cc1nnc(SCC2=C(C(=O)O)N3C(=O)[C@@H](NC(=O)Cn4cc(Cl)c(=O)c(Cl)c4)[C@H]3SC2)s1` [LA8, Cefazedone]: the IC50 was more than 1000 µM. Same read-out and setting: to `CCO/N=C(\C(=O)N[C@@H]1C(=O)N2C(C(=O)[O-])=C(Sc3nc(-c4cc[n+](C)cc4)cs3)CS[C@H]12)c1nsc(NP(=O)(O)O)n1` [LA11, Ceftaroline fosamil] belongs more than 1000 µM. With `CO/N=C(\C(=O)N[C@@H]1C(=O)N2C(C(=O)O)=C(C[N+]3(C)CCCC3)CS[C@H]12)c1csc(N)n1` [LB1, Cefepime Dihydrochloride Monohydrate], the IC50 is more than 1000 µM. The same measure, in the same setting: to `CO[C@@]1(NC(=O)C2SC(=C(C(N)=O)C(=O)O)S2)C(=O)N2C(C(=O)O)=C(CSc3nnnn3C)CS[C@@H]21` (stereo partly shown) [LB4, Cefotetan] belongs 379 µM. Same read-out and setting: to `CC1(C)S[C@@H]2[C@H](NC(=O)[C@H](C(=O)O)c3ccsc3)C(=O)N2[C@H]1C(=O)O` [LB5, Ticarcillin sodium] belongs more than 1000 µM; to `CO/N=C(\C(=O)N[C@@H]1C(=O)N2C(C(=O)O)=C(Cn3ccc(=N)n3CCO)CS[C@H]12)c1csc(N)n1` [LB7, Cefoselis Sulfate], more than 1000 µM.

As to `CCN1CCN(C(=O)N[C@@H](C(=O)N[C@@H]2C(=O)N3C(C(=O)O)=C(CSc4nnnn4C)CS[C@H]23)c2ccc(O)cc2)C(=O)C1=O` [LB8, Cefoperazone], the half-maximal inhibitory concentration (IC50) is more than 1000 µM. Still for that read-out and setting: to `C=CC1=C(C(=O)O)N2C(=O)[C@@H](NC(=O)/C(=N\O)c3csc(N)n3)[C@H]2SC1` [LB10, Cefdinir] belongs more than 1000 µM. The same measure, in the same setting: to `CC1=C(C(=O)O)N2C(=O)C(N)C2SC1` (stereo not shown) [LB12, Cefalexine EP IMpurity B] belongs more than 1000 µM; to `NC(=O)c1cc[n+](CC2=C(C(=O)O)N3C(=O)[C@@H](NC(=O)[C@@H](c4ccccc4)S(=O)(=O)[O-])[C@H]3SC2)cc1` [LC1, Cefsulodine sodium], more than 1000 µM. On to `CO[C@@]1(NC(=O)C(C(=O)O)c2ccc(O)cc2)C(=O)N2C(C(=O)O)=C(CSc3nnnn3C)CO[C@@H]21` (stereo partly shown) [LC4, Latamoxef sodium], for which the 50% inhibitory concentration (IC50) is 179 µM and 180 µM. Still for that read-out and setting: the same measure for `C[C@@H](O)[C@H]1C(=O)N2C(C(=O)O)=C([C@H]3CCCO3)S[C@H]12` [LC7, Faropenem sodium]: more than 1000 µM.

For `CC(=O)OCC1=C(C(=O)O)N2C(=O)[C@@H](NC(=O)CSc3ccncc3)[C@H]2SC1` [LC8, Cephapirin Sodium], the IC50 was determined as 496 µM. As to `NCc1ccccc1CC(=O)N[C@@H]1C(=O)N2C(C(=O)O)=C(CSc3nnnn3CC(=O)O)CS[C@H]12` [LC10, Ceforanide], the half-inhibitory concentration (IC50) was 378 µM. The same measure, in the same setting: to `COCC1=C(C(=O)OC(C)OC(=O)OC(C)C)N2C(=O)[C@@H](NC(=O)/C(=N\OC)c3csc(N)n3)[C@H]2SC1` (stereo partly shown) [LD2, Cefpodoxime proxetil] belongs more than 1000 µM.

Take `CO/N=C(\C(=O)N[C@@H]1C(=O)N2C(C(=O)[O-])=C(C[n+]3cccc4c3CCC4)CS[C@H]12)c1csc(N)n1` [LD3, Cefpirome sulfate]: the IC50 was more than 1000 µM. The same measure, in the same setting: the same measure for `Cn1nnnc1SCC1=C(C(=O)O)N2C(=O)[C@@H](NC(=O)[C@H](OC=O)c3ccccc3)[C@H]2SC1` [LD4, Cefamandole nafate]: more than 1000 µM; for `C[C@@H](O)[C@H]1C(=O)N2C(C(=O)O)=C(S[C@@H]3CN[C@H](C(=O)Nc4cccc(C(=O)O)c4)C3)[C@H](C)[C@H]12` [LD5, Ertapenem sodium]: more than 1000 µM; for `CC/C=C(\C(=O)N[C@@H]1C(=O)N2C(C(=O)OCOC(=O)C(C)(C)C)=C(COC(N)=O)CS[C@H]12)c1csc(N)n1` [LD6, Cefcapene Pivoxil Hydrochloride]: more than 1000 µM. On the same count and under the same terms, the same measure for `Nc1nc(/C(=C/CC(=O)O)C(=O)N[C@@H]2C(=O)N3C(C(=O)O)=CCS[C@H]23)cs1` [LD10, Ceftibuten dihydrate]: more than 1000 µM; for `CO/N=C(\C(=O)N[C@@H]1C(=O)N2C(C(=O)[O-])=C(C[n+]3cccc4c3CCCC4)CS[C@H]12)c1csc(N)n1` [LD11, Cefquinome sulfate]: more than 1000 µM. On the same count and under the same terms, the same measure for `CC1=C(C(=O)O)N2C(=O)[C@@H](NC(=O)[C@H](N)c3ccc(O)cc3)[C@H]2SC1` [LE1, Cefadroxil]: more than 1000 µM. With `CC1(C)S[C@@H]2[C@H](NC(=O)[C@H](N)c3ccccc3)C(=O)N2[C@H]1C(=O)OCOC(=O)[C@@H]1N2C(=O)C[C@H]2S(=O)(=O)C1(C)C` [LE4, Sultamicillin Tosylate], the half-maximal inhibitory concentration (IC50) was more than 1000 µM. Same read-out and setting: to `C[C@@H](O)[C@H]1C(=O)N2C(C(=O)O)=C(S[C@@H]3CN[C@H](CNS(N)(=O)=O)C3)[C@H](C)[C@H]12` [LE5, Doripenem] belongs 148 µM. Still for that read-out and setting: the same measure for `CC1(C)S[C@@H]2[C@H](/N=C/N3CCCCCC3)C(=O)N2[C@H]1C(=O)O` [LE6, Mecillinam]: more than 1000 µM; for `CN(C)CCn1nnnc1SCC1=C(C(=O)O)N2C(=O)[C@@H](NC(=O)Cc3csc(N)n3)[C@H]2SC1` [LE8, Cefotiam hydrochloride]: more than 1000 µM; for `C[C@@H](O)[C@H]1C(=O)N2C(C(=O)O)=C(S[C@@H]3CN[C@H](CNS(N)(=O)=O)C3)[C@H](C)[C@H]12` [LE10, Doripenem Hydrate]: more than 1000 µM.

`N[C@@H](C(=O)N[C@@H]1C(=O)N2C(C(=O)O)=C(Cl)CS[C@H]12)c1ccccc1` [LE11, Cefaclor monohydrate]: the 50% inhibitory concentration (IC50) is more than 1000 µM. Same read-out and setting: the same measure for `C[C@@H](O)[C@H]1C(=O)N2C(C(=O)O)=C(S[C@@H]3CN[C@H](C(=O)N(C)C)C3)[C@H](C)[C@H]12` [LF1, Meropenem]: more than 1000 µM.

`C[n+]1ccn(C[C@@]2(C)[C@H](C(=O)[O-])N3C(=O)C[C@H]3S2(=O)=O)n1` [LF2, AAI101]: the IC50 was more than 1000 µM. On to `CO/N=C(\C(=O)N[C@@H]1C(=O)N2C(C(=O)OCOC(=O)C(C)(C)C)=C(/C=C\c3scnc3C)CS[C@H]12)c1csc(N)n1` [LF3, Cefditoren pivoxil], for which the IC50 was more than 1000 µM.

Still in this test, the particulars now being: TDP1 IC50, 40 pM recombinant TDP1, 1 nM N14Y DNA substrate, 15 min, room temperature.
As for `CON=C(C(=O)NC1C(=O)N2C(C(=O)OCOC(=O)C(C)(C)C)=C(C)CSC12)c1csc(N)n1` (stereo not shown) [LB3, Cefetamet pivoxil hydrochloride], the IC50 is more than 1000 µM.

Staying with this test, now noted: read-out: TDP1 IC50.
In the case of `CC(=O)OCC1=C(C(=O)O)N2C(=O)[C@@H](NC(=O)CSc3ccncc3)[C@H]2SC1` [LA7, Cephapirin Benzathine], the IC50 is more than 1000 µM. Same read-out and setting: the same measure for `CO[C@@]1(NC(=O)CSC[C@@H](N)C(=O)O)C(=O)N2C(C(=O)O)=C(CSc3nnnn3C)CS[C@@H]21` [LE3, Cefminox Sodium]: more than 1000 µM; for `CC1(C)[C@H](C(=O)O)N2C(=O)C[C@H]2S1(=O)=O` [LE7, Sulbactam]: 595 µM.

The term IC50 denotes the concentration that inhibits the measured activity by half.
